# Assay results from US12545936B2, “Expression and secretion of UV absorbent material from transformed bacteria” (University of Cincinnati, priority 2021, dated 2026).
# “Also recorded” adds a separate entry of the source.
# Test system: human skin tissues
# Experiment: UV irradiation of human skin explants, cleaved caspase-3 immunohistochemical staining
# Assay type: cell-based
# Procedure: MAAs extracted from the engineered bacteria of the present invention were evaluated. Human skin was obtained from discarded tissue from elective procedures. The skin tissue was cleaned, trimmed, sterilized and plated in an organ culture medium overnight at 33° C. MAA extract or appropriate controls were applied on skin tissues, after which they were exposed to 135 mJ/cm2 UV-A and UV-B light. The application of live bacteria on human skin tissue was subsequently tested. Different treatments viz. overnight culture of wild type EcN, 10% zinc oxide solution, or overnight culture of EcN expressing shinorine were applied on human skin explants. Treatments were allowed to equilibrate with skin tissue for 1 hour, after which tissues were exposed to UV radiation. The tissues were then incubated for different durations and subsequently fixed. Cleaved caspase-3 immunohistochemical staining was performed to check for DNA damage. Slides were imaged using Leica Slide Scanner and representative images were captured. The captured images were quantified using ImageJ with a modified, previously published protocol (Crowe and Yue, 2019).
smiles,measurement,setting,value
COC1=C(NCC(=O)O)C[C@@](O)(CO)C/C1=N\[C@@H](CO)C(=O)O [shinorine],preventing and/or reducing UV-induced DNA damage compared to untreated group,"MAA extract applied on human skin tissue, 135 mJ/cm2 UV-A and UV-B, three days post exposure, cleaved caspase-3 IHC",significantly effective
same,efficacy vs. 10% zinc oxide against UV-induced DNA damage,"human skin tissue, 72 h post UV irradiation, comparator 10% ZnO, FIG. 7",significant efficacy; also recorded: significantly more effective
